The target in test [1] is human CMV DNA polymerase UL54 (Human cytomegalovirus (strain AD169) (HHV-5) (Human herpesvirus 5), UniProt P08546). Put plainly: CMV polymerase biochemical assay (molecular beacon-based). In a few lines: (§1)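 Readout was beacon fluorescence (ex 480, em 535 nm), used to derive IC50. Each dNTP was at 1.25 uM, with 200 nM primer and 100 nM beacon, after a 30-min RT inhibitor preincubation. Enzyme was 625 pM for HSV UL30 (20 min RT reaction) or 100 pM for CMV UL54 (60 min RT), both sf9-expressed MBP fusions, in pH 7.5 Tris buffer with MgCl2.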

In test [2] the target is human HSV DNA polymerase UL30 (Human herpesvirus 1 (strain 17) (HHV-1) (Human herpes simplex virus 1), UniProt P04293). Put plainly: HSV polymerase biochemical assay (molecular beacon-based). In short, it runs like this:
as §1

In test [3] the test system is Luciferase-encoding HCMV, AD169 strain. Put plainly: CMV Luciferase assay (cellular herpesvirus replication). It counts as cell-based. The note with it: Human betaherpesvirus 5, AD169, read-out: CMV-Luc Cellular EC50. In a few lines: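 Neonatal human dermal fibroblasts were pretreated 1 h with compound (final 0.0159–50 μM or 0.00318–10 μM, 0.5% DMSO), then infected at MOI 1 with AD169 carrying pp28-promoter luciferase. After 72 h at 37 °C, Renilla-Glo luminescence normalized to no-virus and virus-only controls; EC50 by 4-parameter logistic model.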

One may read the IC50 as the concentration that inhibits the measured activity by half. Lower therefore signals greater potency in that assay. By EC50 is commonly meant the concentration that produces a half-maximal response.

As for `CS(=O)(=O)N(CCN1CCn2c(ccc(C(=O)NCc3ccc(Cl)cc3)c2=O)C1=O)C1CC1` [Example 115, N-(4-chlorobenzyl)-2-(2-(N-cyclopropylmethylsulfonamido)ethyl)-1,6-dioxo-2,3,4,6-tetrahydro-1H-pyrido[1,2-a]pyrazine-7-carboxamide], the IC50 in test [1] amounted to 747 nM; in test [2] it was 13600 nM. Besides, the EC50 in test [3] was 15000 nM.

Turning to `O=C(NCc1ccc(Cl)cc1)c1ccc2n(c1=O)CCN(CCO)C2=O` [Example 116, N-(4-chlorobenzyl)-2-(2-hydroxyethyl)-1,6-dioxo-2,3,4,6-tetrahydro-1H-pyrido[1,2-a]pyrazine-7-carboxamide], the concentration for half-maximal inhibition (IC50) was 2140 nM in test [1] and 14100 nM in test [2]. Also, the half-maximal effective concentration (EC50) in test [3] was determined as 24700 nM.

As for `CS(=O)(=O)CCN1CCn2c(c(Br)cc(C(=O)NCc3ccc(Cl)cc3)c2=O)C1=O` [Example 117, 9-bromo-N-(4-chlorobenzyl)-2-(2-(methylsulfonyl)ethyl)-1,6-dioxo-1,3,4,6-tetrahydro-2H-pyrido[1,2-a]pyrazine-7-carboxamide], the IC50 worked out at 285 nM in test [1] and 577 nM in test [2]. Also, the EC50 in test [3] worked out at 1440 nM.

In the case of `O=C(NCc1ccc(Cl)cc1)c1cc(Br)c2n(c1=O)CCN(CCN1CCCS1(=O)=O)C2=O` [Example 124, 9-bromo-N-(4-chlorobenzyl)-2-(2-(1,1-dioxidoisothiazolidin-2-yl)ethyl)-1,6-dioxo-1,3,4,6-tetrahydro-2H-pyrido[1,2-a]pyrazine-7-carboxamide], the 50% inhibitory concentration (IC50) worked out at 83.1 nM in test [1] and 310 nM in test [2]. Besides, the EC50 in test [3] was determined as 874 nM.

As for `CS(=O)(=O)CCN1CCn2c(c(C#N)cc(C(=O)NCc3ccc(Cl)cc3)c2=O)C1=O` [Example 125, N-(4-chlorobenzyl)-9-cyano-2-(2-(methylsulfonyl)ethyl)-1,6-dioxo-1,3,4,6-tetrahydro-2H-pyrido[1,2-a]pyrazine-7-carboxamide], the concentration for half-maximal inhibition (IC50) was 566 nM in test [1] and 1010 nM in test [2]. Moreover, the EC50 in test [3] amounted to 20200 nM.

Take `CS(=O)(=O)CCCN1CCn2c(c(C#N)cc(C(=O)NCc3ccc(Cl)cc3)c2=O)C1=O` [Example 126]: the IC50 in test [1] was 1200 nM; in test [2], 1970 nM. Also, the EC50 in test [3] is 50000 nM.

Consider `CN(CCN1CCn2c(c(C#N)cc(C(=O)NCc3ccc(Cl)cc3)c2=O)C1=O)S(C)(=O)=O` [Example 127], for which the IC50 in test [1] is 545 nM; in test [2], 4790 nM. Also, the EC50 in test [3] amounted to 19900 nM.

Turning to `CN(CCN1CCn2c(c(C3CC3)cc(C(=O)NCc3ccc(Cl)cc3)c2=O)C1=O)S(C)(=O)=O` [Example 128, N-(4-chlorobenzyl)-9-cyclopropyl-2-(2-(N-methylmethylsulfonamido)ethyl)-1,6-dioxo-1,3,4,6-tetrahydro-2H-pyrido[1,2-a]pyrazine-7-carboxamide], the IC50 came out at 153 nM in test [1] and 2560 nM in test [2]. Moreover, the EC50 in test [3] was determined as 2380 nM.

As for `CS(=O)(=O)C1(CN2CCn3c(c(C4CC4)cc(C(=O)NCc4ccc(Cl)cc4)c3=O)C2=O)CC1` [Example 132], the IC50 in test [1] was 3.1 nM; in test [2] it was 138 nM. Moreover, the EC50 in test [3] stood at 70.7 nM.

For the molecule `CCc1cc(C(=O)NCc2ccc(Cl)cc2)c(=O)n2c1C(=O)N(CCN(C)S(C)(=O)=O)CC2` [Example 134, N-(4-chlorobenzyl)-9-ethyl-2-(2-(N-methylmethylsulfonamido)ethyl)-1,6-dioxo-1,3,4,6-tetrahydro-2H-pyrido[1,2-a]pyrazine-7-carboxamide], the IC50 is 268 nM in test [1] and 2120 nM in test [2]. The EC50 in test [3] is 2870 nM.

As for `CCc1cc(C(=O)NCc2ccc(Cl)cc2)c(=O)n2c1C(=O)N(CC1(S(C)(=O)=O)CC1)CC2` [Example 136], the results for the IC50 in test [1] and in test [2] were 2.5 nM and 136 nM, respectively. Besides, in test [3], the concentration for a half-maximal effect (EC50) was found to be 86.7 nM.

For `CN(CCN1CCn2c(c(CO)cc(C(=O)NCc3ccc(Cl)cc3)c2=O)C1=O)S(C)(=O)=O` [Example 137, N-(4-chlorobenzyl)-9-(hydroxylmethyl)-2-(2-(N-methylmethylsulfonamido)ethyl)-1,6-dioxo-1,3,4,6-tetrahydro-2H-pyrido[1,2-a]pyrazine-7-carboxamide], the IC50 in test [1] came to 348 nM; in test [2] it was 3900 nM. Also, the EC50 in test [3] came out at 19700 nM.

With `CS(=O)(=O)CCCN1CCn2c(c(CO)cc(C(=O)NCc3ccc(Cl)cc3)c2=O)C1=O` [Example 139], the IC50 in test [1] was 989 nM; in test [2] it was 3580 nM. Also, in test [3], the EC50 was found to be 50000 nM.

Consider `CN(CCN1CCn2c(c(CF)cc(C(=O)NCc3ccc(Cl)cc3)c2=O)C1=O)S(C)(=O)=O` [Example 140, N-(4-chlorobenzyl)-9-(fluoromethyl)-2-(2-(N-methylmethylsulfonamido)ethyl)-1,6-dioxo-1,3,4,6-tetrahydro-2H-pyrido[1,2-a]pyrazine-7-carboxamide], for which the IC50 in test [1] turned out to be 242 nM; in test [2], 4260 nM. The EC50 in test [3] was 2220 nM.

For the molecule `O=C(NCc1ccc(Cl)cc1)c1cc(CF)c2n(c1=O)CCN(CCN1CCCS1(=O)=O)C2=O` [Example 141], the values for the IC50 in test [1] and in test [2] were 72.8 nM and 328 nM, respectively. Also, in test [3], the EC50 worked out at 1650 nM.

With `CN(CCN1CCn2c(c(C(F)F)cc(C(=O)NCc3ccc(Cl)cc3)c2=O)C1=O)S(C)(=O)=O` [Example 143, N-(4-chlorobenzyl)-9-(difluoromethyl)-2-(2-(N-methylmethylsulfonamido)ethyl)-1,6-dioxo-1,3,4,6-tetrahydro-2H-pyrido[1,2-a]pyrazine-7-carboxamide], the IC50 in test [1] is 649 nM; in test [2], 6310 nM. Also, the EC50 in test [3] was determined as 30600 nM.

In the case of `CS(=O)(=O)CCCN1CCn2c(c(C(F)F)cc(C(=O)NCc3ccc(Cl)cc3)c2=O)C1=O` [Example 145], the IC50 in test [1] is 1410 nM; in test [2], 6820 nM. Moreover, the EC50 in test [3] worked out at 30200 nM.

In the case of `O=C(NCc1ccc(Cl)cc1)c1cc(C(F)(F)F)c2n(c1=O)CCN(CCN1CCCS1(=O)=O)C2=O` [Example 147], the values for the IC50 in test [1] and in test [2] were 558 nM and 5050 nM, respectively. Further, the EC50 in test [3] is 21400 nM.

In the case of `Cc1cc(C(=O)NCc2ccc(Cl)cc2)c(=O)n2c1C(=O)N(CCN(C)S(C)(=O)=O)CC2` [Example 148, N-(4-chlorobenzyl)-9-methyl-2-(2-(N-methylmethylsulfonamido)ethyl)-1,6-dioxo-1,3,4,6-tetrahydro-2H-pyrido[1,2-a]pyrazine-7-carboxamide], the IC50 in test [1] was determined as 181 nM; in test [2], 1510 nM. For the same molecule, the EC50 in test [3] is 1660 nM.

As for `Cc1cc(C(=O)NCc2ccc(Cl)cc2)c(=O)n2c1C(=O)N(CC1(N(C)S(C)(=O)=O)CC1)CC2` [Example 149], the results for the IC50 in test [1] and in test [2] were 112 nM and 2200 nM, respectively. Also, the EC50 in test [3] was 7910 nM.

Consider `Cc1cc(C(=O)NCc2ccc(Cl)cc2)c(=O)n2c1C(=O)N(CCCS(C)(=O)=O)CC2` [Example 152], for which the IC50 in test [1] was 653 nM; in test [2], 1670 nM. The EC50 in test [3] came out at 9190 nM.

For `Cc1cc(C(=O)NCc2ccc(Cl)cc2)c(=O)n2c1C(=O)N(CCS(C)(=O)=O)CC2` [Example 153], the results for the IC50 in test [1] and in test [2] were 118 nM and 388 nM, respectively. In test [3], the EC50 stood at 626 nM.

For the molecule `CN(CCN1CCn2c(c(C#CCO)cc(C(=O)NCc3ccc(Cl)cc3)c2=O)C1=O)S(C)(=O)=O` [Example 155, N-(4-chlorobenzyl)-9-(3-hydroxyprop-1-yn-1-yl)-2-(2-(N-methylmethylsulfonamido)ethyl)-1,6-dioxo-1,3,4,6-tetrahydro-2H-pyrido[1,2-a]pyrazine-7-carboxamide], the IC50 turned out to be 201 nM in test [1] and 1950 nM in test [2]. In test [3], the EC50 amounted to 37200 nM.

Regarding `CS(=O)(=O)CCCN1CCn2c(c(C#CCO)cc(C(=O)NCc3ccc(Cl)cc3)c2=O)C1=O` [Example 156], the IC50 in test [1] was determined as 913 nM; in test [2], 2110 nM. The EC50 in test [3] is 50000 nM.

Take `CN(CCN1CCn2c(c(CCCO)cc(C(=O)NCc3ccc(Cl)cc3)c2=O)C1=O)S(C)(=O)=O` [Example 157, N-(4-chlorobenzyl)-9-(3-hydroxypropyl)-2-(2-(N-methylmethylsulfonamido)ethyl)-1,6-dioxo-1,3,4,6-tetrahydro-2H-pyrido[1,2-a]pyrazine-7-carboxamide]: the IC50 was found to be 223 nM in test [1] and 1800 nM in test [2]. Further, in test [3], the EC50 was determined as 7720 nM.

Take `CS(=O)(=O)CCCN1CCn2c(c(N3CCCC3)cc(C(=O)NCc3ccc(Cl)cc3)c2=O)C1=O` [Example 158, N-(4-chlorobenzyl)-2-(3-(methylsulfonyl)propyl)-1,6-dioxo-9-(pyrrolidin-1-yl)-1,3,4,6-tetrahydro-2H-pyrido[1,2-a]pyrazine-7-carboxamide]: the results for the half-inhibitory concentration (IC50) in test [1] and in test [2] were 370 nM and 4090 nM, respectively. Also, the EC50 in test [3] was 13300 nM.

In the case of `Cc1nc(-c2cc(C(=O)NCc3ccc(Cl)cc3)c(=O)n3c2C(=O)N(CCS(C)(=O)=O)CC3)no1` [Example 159, N-(4-chlorobenzyl)-9-(5-methyl-1,2,4-oxadiazol-3-yl)-2-(2-(methylsulfonyl)ethyl)-1,6-dioxo-1,3,4,6-tetrahydro-2H-pyrido[1,2-a]pyrazine-7-carboxamide], the IC50 in test [1] stood at 1780 nM; in test [2], 5660 nM. Further, in test [3], the EC50 stood at 26600 nM.

The record behind these values is patent US12466821B2 (Novartis AG, priority 2018, dated 2025).
